Literature values in patent publication US9851354B2, “Methods of treating fragile X syndrome and related disorders” (Alcobra Ltd., priority 2013, dated 2017).

Details: cited from earlier work
[1] = randomized placebo-controlled trial in autistic children (McCracken 2002)

Q: What does the source list for Cc1nc2n(c(=O)c1CCN1CCC(c3noc4cc(F)ccc34)CC1)CCCC2 [risperidone]?
A: social isolation and communication (autistic children): not improved; adverse events [1]: weight gain, increased appetite, fatigue, drowsiness, dizziness, and drooling; irritability subscale of the Aberrant Behavior Checklist and Clinical Global Impressions-Improvement [1]: significant improvement; adverse side effects associated with use (use in autistic children): extrapyramidal symptoms and dyskinesias
